Source: patent publication US11939348B2, “Compositions comprising a phosphorus derivative of nicotinamide riboside and methods for modulation of nicotinamide adenine dinucleotide” (Metro International Biotech, LLC, priority 2019, dated 2024)

System: AML12 cells
Experiment: NAD(H) normalized to total protein in treated AML12 cells compared to untreated cells
Format: cell-based
Conditions: compound at 2 mM, 1 mM and 500 micromolar, untreated cells normalized to 1.0, FIG. 1
Text: Compound A is Formula I, n=2. Compound B is Formula I, n=1.

Compound | NAD(H) normalized to total protein in treated AML12 cells compared to untreated cells
NC(=O)c1ccc[n+]([C@@H]2O[C@H](COP(=O)(O)OC[C@H]3O[C@@H]([n+]4cccc(C(N)=O)c4)[C@H](O)[C@@H]3O)[C@@H](O)[C@H]2O)c1 [Compound B, bis(((2R,3S,4R,5R)-5-(3-carbamoylpyridin-1-ium-1-yl)-3,4-dihydroxytetrahydrofuran-2-yl)methyl) phosphate acetate] | possess NAD(H) boosting activity
NC(=O)c1ccc[n+]([C@@H]2O[C@H](COP(=O)([O-])OP(=O)([O-])OCC3O[C@@H]([n+]4cccc(C(N)=O)c4)[C@H](O)[C@@H]3O)[C@@H](O)[C@H]2O)c1 (some centres unmarked) [Compound A] | possess NAD(H) boosting activity
